Experiments:
[1] = test system: purple nutsedge; assay: Test B pre/postemergence purple nutsedge; format: in vivo, Cyperus rotundus
Outline: (§1)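 Response is a visual 0-to-10 score relative to untreated plants, where 0 means no effect and 10 means complete control, taken twelve to sixteen days after application. Treatments went onto soil at planting and onto foliage of 1- to 4-leaf plants, using a surfactant-containing non-phytotoxic solvent.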

[2] = test system: cocklebur; assay: Test B pre/postemergence cocklebur; format: in vivo, Xanthium strumarium
Outline: as §1

[3] = test system: bedstraw; assay: Test B pre/postemergence bedstraw; format: in vivo, Galium aparine; details: Postemergence
Outline: as §1

[4] = test system: smallflower flatsedge; assay: Test B flood test smallflower flatsedge; format: in vivo, Cyperus difformis
Outline: (§2)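 Plants were grown to the 2-leaf stage before treatment with test chemical, then held in a greenhouse for twelve to sixteen days. Injury was visually rated against untreated controls on a 0–10 scale, where 0 is no effect and 10 is complete control.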

[5] = test system: morningglory; assay: Test B pre/postemergence morningglory; format: in vivo, Ipomoea hederacea
Outline: as §1

[6] = test system: corn; assay: Test B pre/postemergence corn; format: in vivo, Zea mays
Outline: as §1

[7] = test system: blackgrass; assay: Test B pre/postemergence blackgrass; format: in vivo, Alopecurus myosuroides
Outline: as §1

[8] = test system: pigweed; assay: Test B pre/postemergence pigweed; format: in vivo, Amaranthus retroflexus
Outline: as §1

[9] = test system: bamyardgrass; assay: Test B flood test barnyardgrass; format: in vivo, Echinochloa crus-galli
Outline: as §2

[10] = test system: giant foxtail; assay: Test B pre/postemergence giant foxtail; format: in vivo, Setaria faberii
Outline: as §1

[11] = test system: duck salad; assay: Test B flood test duck salad; format: in vivo, Heteranthera limosa
Outline: as §2

[12] = test system: rape; assay: Test B pre/postemergence rape; format: in vivo, Brassica napus
Outline: as §1

[13] = test system: surinam grass; assay: Test B pre/postemergence surinam grass; format: in vivo, Brachiaria decumbens
Outline: as §1

[14] = test system: sugar beet; assay: Test B pre/postemergence sugar beet; format: in vivo, Beta vulgaris
Outline: as §1

[15] = test system: velvetleaf; assay: Test B pre/postemergence velvetleaf; format: in vivo, Abutilon theophrasti
Outline: as §1

[16] = test system: soybean; assay: Test B pre/postemergence soybean; format: in vivo, Glycine max
Outline: as §1

[17] = Postemergence, Rate 62 g/ha, scale 0 to 10, 0 is no effect, 10 is complete control
[18] = Postemergence, Rate 125 g/ha, scale of 0 to 10 where 0 is no effect and 10 is complete control
[19] = Preemergence, Rate 62 g/ha, scale of 0 to 10 where 0 is no effect and 10 is complete control
[20] = Preemergence, Rate 125 g/ha, scale of 0 to 10 where 0 is no effect and 10 is complete control
[21] = Preemergence, Rate 250 g/ha, scale 0 to 10 (0 no effect, 10 complete control)
[22] = Preemergence, Rate 500 g/ha, scale of 0 to 10 where 0 is no effect and 10 is complete control
[23] = Rate 500 g/ha, Postemergence, scale 0 to 10, 0 is no effect, 10 is complete control
[24] = Postemergence, Rate 250 g/ha, scale of 0 to 10, 0 is no effect, 10 is complete control
[25] = Rate 62 g/ha, flood test species, Pre-emergence, visual evaluation after twelve to sixteen days
[26] = Rate 125 g/ha, under heading Pre-emergence, flood test species, visual evaluation after twelve to sixteen days
[27] = Rate 250 g/ha, Pre-emergence (flood test species), scale 0 to 10, 0 is no effect, 10 is complete control
[28] = Rate 500 g/ha, Pre-emergence section of Table B, 0 to 10 scale (0 no effect, 10 complete control)

CC(C)N(C(=O)n1oc(=O)n(CC2CCCCO2)c1=O)c1ccccc1 (centres unmarked) [Compound 659]
Plant response rating, Nutsedge [1, 17]: 0
Nutsedge plant response rating [1, 18]: 0
Nutsedge plant response rating [1, 19]: 0
Nutsedge plant response rating [1, 20]: 0
Plant response rating, Nutsedge [1, 21]: 0
Plant response rating, Nutsedge [1, 22]: 0
Nutsedge plant response rating [1, 23]: 0
Plant response rating, Cocklebur [2, 17]: 0
Cocklebur plant response rating [2, 18]: 0
Cocklebur plant response rating [2, 24]: 0
Cocklebur plant response rating [2, 19]: 0
Cocklebur plant response rating [2, 20]: 0
Plant response rating, Cocklebur [2, 21]: 0
Plant response rating, Cocklebur [2, 22]: 0
Cocklebur plant response rating [2, 23]: 2
Plant response rating, Bedstraw ([3]; Rate 62 g/ha, scale 0 to 10, 0 is no effect, 10 is complete control): 0
Bedstraw plant response rating ([3]; Rate 125 g/ha, scale of 0 to 10 where 0 is no effect and 10 is complete control): 0
Plant response rating, S. Flatsedge (0 to 10 scale, 0 is no effect, 10 is complete control) [4, 25]: 0
S. Flatsedge plant response rating (0 to 10 scale, 0 is no effect, 10 is complete control) [4, 26]: 0
S. Flatsedge plant response rating [4, 27]: 0
S. Flatsedge plant response rating [4, 28]: 5
Plant response rating, Morningglory [5, 17]: 4
Morningglory plant response rating [5, 18]: 10
Morningglory plant response rating [5, 24]: 10
Morningglory plant response rating [5, 19]: 0
Morningglory plant response rating [5, 20]: 0
Plant response rating, Morningglory [5, 21]: 0
Plant response rating, Morningglory [5, 22]: 6
Morningglory plant response rating [5, 23]: 10
Plant response rating, Corn [6, 17]: 0
Corn plant response rating [6, 18]: 0
Corn plant response rating [6, 24]: 4
Corn plant response rating [6, 19]: 0
Corn plant response rating [6, 20]: 0
Plant response rating, Corn [6, 21]: 7
Plant response rating, Corn [6, 22]: 9
Corn plant response rating [6, 23]: 6
Plant response rating, Blackgrass [7, 17]: 1
Blackgrass plant response rating [7, 18]: 6
Blackgrass plant response rating [7, 24]: 7
Blackgrass plant response rating [7, 19]: 3
Blackgrass plant response rating [7, 20]: 6
Plant response rating, Blackgrass [7, 21]: 7
Plant response rating, Blackgrass [7, 22]: 9
Blackgrass plant response rating [7, 23]: 7
Plant response rating, Redroot pigweed [8, 17]: 0
Redroot pigweed plant response rating [8, 18]: 0
Redroot pigweed plant response rating [8, 19]: 6
Redroot pigweed plant response rating [8, 20]: 6
Plant response rating, Redroot pigweed [8, 21]: 9
Plant response rating, Redroot pigweed [8, 22]: 10
Redroot pigweed plant response rating [8, 23]: 7
Plant response rating, Barnyardgrass (0 to 10 scale, 0 is no effect, 10 is complete control) [9, 25]: 0
Barnyardgrass plant response rating (0 to 10 scale, 0 is no effect, 10 is complete control) [9, 26]: 2
Barnyardgrass plant response rating [9, 27]: 2
Barnyardgrass plant response rating [9, 28]: 7
Plant response rating, Giant foxtail [10, 17]: 5
Giant foxtail plant response rating [10, 18]: 7
Giant foxtail plant response rating [10, 24]: 8
Giant foxtail plant response rating [10, 19]: 9
Giant foxtail plant response rating [10, 20]: 9
Plant response rating, Giant foxtail [10, 21]: 9
Plant response rating, Giant foxtail [10, 22]: 10
Giant foxtail plant response rating [10, 23]: 8
Plant response rating, Ducksalad (0 to 10 scale, 0 is no effect, 10 is complete control) [11, 25]: 0
Ducksalad plant response rating (0 to 10 scale, 0 is no effect, 10 is complete control) [11, 26]: 0
Ducksalad plant response rating [11, 27]: 0
Ducksalad plant response rating [11, 28]: 0
Plant response rating, Rape [12, 17]: 0
Rape plant response rating [12, 18]: 0
Rape plant response rating [12, 19]: 0
Rape plant response rating [12, 20]: 0
Plant response rating, Rape [12, 21]: 2
Plant response rating, Rape [12, 22]: 10
Rape plant response rating [12, 23]: 1
Plant response rating, B. signalgrass [13, 17]: 0
Plant response rating, B. signalgrass [13, 18]: 5
B. signalgrass plant response rating [13, 24]: 5
B. signalgrass plant response rating [13, 19]: 2
B. signalgrass plant response rating [13, 20]: 4
Plant response rating, B. signalgrass [13, 21]: 4
Plant response rating, B. signalgrass [13, 22]: 8
B. signalgrass plant response rating [13, 23]: 8
Plant response rating, Sugarbeets [14, 17]: 0
Sugarbeets plant response rating [14, 18]: 0
Sugarbeets plant response rating [14, 19]: 0
Sugarbeets plant response rating [14, 20]: 0
Plant response rating, Sugarbeets [14, 21]: 0
Plant response rating, Sugarbeets [14, 22]: 5
Sugarbeets plant response rating [14, 23]: 4
Plant response rating, Velvetleaf [15, 17]: 0
Velvetleaf plant response rating [15, 18]: 3
Velvetleaf plant response rating [15, 19]: 0
Velvetleaf plant response rating [15, 20]: 0
Plant response rating, Velvetleaf [15, 21]: 6
Plant response rating, Velvetleaf [15, 22]: 7
Velvetleaf plant response rating [15, 23]: 6
Plant response rating, Soybean [16, 17]: 2
Soybean plant response rating [16, 18]: 3
Soybean plant response rating [16, 19]: 0
Soybean plant response rating [16, 20]: 0
Plant response rating, Soybean [16, 21]: 0
Plant response rating, Soybean [16, 22]: 2
Soybean plant response rating [16, 23]: 7
